Reference: PubChem BioAssay AID1963866 (Molecular Pharmacology Branch, DTP, NCI, 2024)
Active and inactive are the calls of the source. How the source made its calls: active means viability on the fitted dose curve at most 10% of control; inactive means the rest.

System: PDC KRAS tumor spheroids with HUVEC/MSC, viability
Assay: Anticancer human tumor 349418-098-R-PDC patient-derived lung adenocarcinoma cell line growth inhibition [KRAS2]
Details: for viability, T/C: stronger effect = lower value
In short: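 Combination screen of spheroid viability in tumor-cell co-cultures with endothelial (HUVEC) and mesenchymal stem cell stroma. Each agent was tested in half-log dilutions, topping at clinical Cmax or at 10 microM without a known Cmax.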

[1] = curve of first compound, second compound 0.1 µM
[2] = curve of first compound, second compound 0.316 µM
[3] = curve of first compound, second compound 1 µM
[4] = curve of first compound, second compound 3.16 µM
[5] = curve of first compound, second compound 10 µM
[6] = second compound 0.1 µM, first compound 0.0316 µM
[7] = second compound 0.1 µM, first compound 0.1 µM
[8] = second compound 0.1 µM, first compound 0.316 µM
[9] = second compound 0.1 µM, first compound 1 µM
[10] = second compound 0.1 µM, first compound 3.16 µM
[11] = second compound 0.1 µM, first compound 10 µM
[12] = second compound 0.316 µM, first compound 0.0316 µM
[13] = second compound 0.316 µM, first compound 0.1 µM
[14] = second compound 0.316 µM, first compound 0.316 µM
[15] = second compound 0.316 µM, first compound 1 µM
[16] = second compound 0.316 µM, first compound 3.16 µM
[17] = second compound 0.316 µM, first compound 10 µM
[18] = second compound 1 µM, first compound 0.0316 µM
[19] = second compound 1 µM, first compound 0.1 µM
[20] = second compound 1 µM, first compound 0.316 µM
[21] = second compound 1 µM, first compound 1 µM
[22] = second compound 1 µM, first compound 3.16 µM
[23] = second compound 1 µM, first compound 10 µM
[24] = second compound 3.16 µM, first compound 0.0316 µM
[25] = second compound 3.16 µM, first compound 0.1 µM
[26] = second compound 3.16 µM, first compound 0.316 µM
[27] = second compound 3.16 µM, first compound 1 µM
[28] = second compound 3.16 µM, first compound 3.16 µM
[29] = second compound 3.16 µM, first compound 10 µM
[30] = second compound 10 µM, first compound 0.0316 µM
[31] = second compound 10 µM, first compound 0.1 µM
[32] = second compound 10 µM, first compound 0.316 µM
[33] = second compound 10 µM, first compound 1 µM
[34] = second compound 10 µM, first compound 3.16 µM
[35] = second compound 10 µM, first compound 10 µM
[36] = second compound 0.1 µM, first compound 0.000316 µM
[37] = second compound 0.1 µM, first compound 0.001 µM
[38] = second compound 0.1 µM, first compound 0.00316 µM
[39] = second compound 0.1 µM, first compound 0.01 µM
[40] = second compound 0.316 µM, first compound 0.000316 µM
[41] = second compound 0.316 µM, first compound 0.001 µM
[42] = second compound 0.316 µM, first compound 0.00316 µM
[43] = second compound 0.316 µM, first compound 0.01 µM
[44] = second compound 1 µM, first compound 0.000316 µM
[45] = second compound 1 µM, first compound 0.001 µM
[46] = second compound 1 µM, first compound 0.00316 µM
[47] = second compound 1 µM, first compound 0.01 µM
[48] = second compound 3.16 µM, first compound 0.000316 µM
[49] = second compound 3.16 µM, first compound 0.001 µM
[50] = second compound 3.16 µM, first compound 0.00316 µM
[51] = second compound 3.16 µM, first compound 0.01 µM
[52] = second compound 10 µM, first compound 0.000316 µM
[53] = second compound 10 µM, first compound 0.001 µM
[54] = second compound 10 µM, first compound 0.00316 µM
[55] = second compound 10 µM, first compound 0.01 µM
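Further: spheroids exposed to compounds for seven days before readout.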

CC1(C)CCC(CN2CCN(c3ccc(C(=O)NS(=O)(=O)c4ccc(NCC5CCOCC5)c([N+](=O)[O-])c4)c(Oc4cnc5[nH]ccc5c4)c3)CC2)=C(c2ccc(Cl)cc2)C1 + CC1OCC2(CCN(c3cnc(Sc4ccnc(N)c4Cl)c(N)n3)CC2)C1N
1250 nM: IC50 [5]
1730 nM: IC50 [2]
1800 nM: IC50 [1]
active: viability, T/C [11] 3.59% | viability, T/C [17] 3.15% | viability, T/C [23] 3.05% | viability, T/C [29] 2% | viability, T/C [35] 0.69%
1580 nM: IC50 [4]
inactive: viability, T/C [6] 105% | viability, T/C [7] 97.1% | viability, T/C [8] 91.4% | viability, T/C [9] 89.1% | viability, T/C [10] 12.3% | viability, T/C [12] 95.4% | viability, T/C [13] 94.4% | viability, T/C [14] 89.6% | viability, T/C [15] 84.5% | viability, T/C [16] 12.2% | viability, T/C [18] 94.9% | viability, T/C [19] 97.9% | viability, T/C [20] 88.2% | viability, T/C [21] 87.1% | viability, T/C [22] 13.3% | viability, T/C [24] 87.4% | viability, T/C [25] 85.5% | viability, T/C [26] 77.9% | viability, T/C [27] 71.8% | viability, T/C [28] 17.7% | viability, T/C [30] 76% | viability, T/C [31] 82.1% | viability, T/C [32] 63.2% | viability, T/C [33] 60.8% | viability, T/C [34] 15.6%
1780 nM: IC50 [3]

CC(C)NCC(C(=O)N1CCN(c2ncnc3c2C(C)CC3O)CC1)c1ccc(Cl)cc1 (stereo unspecified) + COc1cc2nc(C)nc(NC(C)c3cc(N)cc(C(F)(F)F)c3)c2cc1OC1CCOC1
279 nM: IC50 [1]
< 31.6 nM: IC50 [5]
inactive: viability, T/C [6] 98.1% | viability, T/C [7] 73% | viability, T/C [8] 49.4% | viability, T/C [9] 23.1% | viability, T/C [10] 10.2% | viability, T/C [12] 85.4% | viability, T/C [13] 77% | viability, T/C [14] 44.8% | viability, T/C [15] 18.9% | viability, T/C [18] 93% | viability, T/C [19] 66.4% | viability, T/C [20] 31.4% | viability, T/C [21] 22% | viability, T/C [24] 71.9% | viability, T/C [25] 58.3% | outcome [26] | viability, T/C [27] 13.9% | viability, T/C [30] 26.9% | viability, T/C [31] 20.7%
270 nM: IC50 [2]
146 nM: IC50 [4]
178 nM: IC50 [3]
active: viability, T/C [11] 6.37% | viability, T/C [16] 7.59% | viability, T/C [17] 6.32% | viability, T/C [22] 6.85% | viability, T/C [23] 3.87% | viability, T/C [28] 6.58% | viability, T/C [29] 5.75% | viability, T/C [32] 7.61% | viability, T/C [33] 3.94% | viability, T/C [34] 1.89% | viability, T/C [35] 2.67%

COc1cc2nccc(Oc3ccc(NC(=O)C4(C(=O)Nc5ccc(F)cc5)CC4)cc3)c2cc1OC + C=CC(=O)N1CCN(c2nc(OCC3CCCN3C)nc3c2CCN(c2cccc4cccc(C)c24)C3)CC1CC#N
< 31.6 nM: IC50 [4]
1570 nM: IC50 [1]
1530 nM: IC50 [2]
active: viability, T/C [22] 1.78% | viability, T/C [23] 0.85% | viability, T/C [24] 0.14% | viability, T/C [25] 0.28% | viability, T/C [26] 0.29% | viability, T/C [27] 0.22% | viability, T/C [28] 0.19% | viability, T/C [29] 0.14%
inactive: viability, T/C (second compound 0.0316 µM, first compound 0.0316 µM) 96.3% | viability, T/C (second compound 0.0316 µM, first compound 0.1 µM) 96.9% | viability, T/C (second compound 0.0316 µM, first compound 0.316 µM) 92.2% | viability, T/C (second compound 0.0316 µM, first compound 1 µM) 72.5% | viability, T/C (second compound 0.0316 µM, first compound 3.16 µM) 10.1% | viability, T/C (second compound 0.0316 µM, first compound 10 µM) 19.4% | viability, T/C [6] 88.5% | viability, T/C [7] 95.8% | viability, T/C [8] 93.7% | viability, T/C [9] 74.6% | viability, T/C [10] 7.5% | viability, T/C [11] 15.7% | viability, T/C [12] 93.2% | viability, T/C [13] 88.6% | viability, T/C [14] 85.3% | viability, T/C [15] 72.8% | viability, T/C [16] 7.47% | viability, T/C [17] 15.3% | viability, T/C [18] 73.5% | viability, T/C [19] 79.7% | viability, T/C [20] 68.4% | viability, T/C [21] 33.7%
588 nM: IC50 [3]
1560 nM: IC50 (curve of first compound, second compound 0.0316 µM)

Cn1ncnc1[C@H]1c2n[nH]c(=O)c3cc(F)cc(c23)N[C@@H]1c1ccc(F)cc1 + CNCc1ccccc1-c1csc(C(C)Nc2nc(C)nc3cc(OC)c(OC)cc23)c1
active: viability, T/C [48] 0.11% | viability, T/C [49] 0.09% | viability, T/C [50] 0.09% | viability, T/C [51] 0.08% | viability, T/C [24] 0.1% | viability, T/C [25] 0.16% | viability, T/C [52] 0.07% | viability, T/C [53] 0.07% | viability, T/C [54] 0.08% | viability, T/C [55] 0.07% | viability, T/C [30] 0.08% | viability, T/C [31] 0.13%
> 100 nM: IC50 [1] | IC50 [2] | IC50 [3]
inactive: viability, T/C [36] 102% | viability, T/C [37] 98% | viability, T/C [38] 99.7% | viability, T/C [39] 91.3% | viability, T/C [6] 90.4% | viability, T/C [7] 86.4% | viability, T/C [40] 102% | viability, T/C [41] 102% | viability, T/C [42] 90.6% | viability, T/C [43] 93.9% | viability, T/C [12] 84.3% | viability, T/C [13] 76.3% | viability, T/C [44] 77.5% | viability, T/C [45] 64.6% | viability, T/C [46] 73.2% | viability, T/C [47] 71.4% | viability, T/C [18] 72.1% | viability, T/C [19] 64.9%
< 0.316 nM: IC50 [4] | IC50 [5]

CCNC(=O)CC1N=C(c2ccc(Cl)cc2)c2cc(OC)ccc2-n2c(C)nnc21 (stereo unspecified)
8.84% [middle of 5 runs]: viability, T/C (compound 1 µM)
inactive: viability, T/C (compound 0.1 µM) 57.3% [middle of 5 runs] | viability, T/C (compound 0.316 µM) 30.4% [middle of 5 runs]
active: viability, T/C (compound 3.16 µM) 2.06% [middle of 5 runs] | viability, T/C (compound 10 µM) 1.07% [middle of 5 runs]
138 nM [middle of 5 runs]: IC50 (curve of compound)

CC(C)n1nc(-c2ccc3oc(N)nc3c2)c2c(N)ncnc21 + COc1cc2nc(C)nc(NC(C)c3cc(N)cc(C(F)(F)F)c3)c2cc1OC1CCOC1
0.969 nM: IC50 [3]
active: viability, T/C [6] 9.94% | viability, T/C [7] 7.92% | viability, T/C [43] 8.46% | viability, T/C [12] 8.96% | viability, T/C [13] 8.23% | viability, T/C [47] 9.11% | viability, T/C [18] 8.55% | viability, T/C [19] 7.48% | viability, T/C [51] 8.93% | viability, T/C [24] 8.73% | viability, T/C [25] 7.6% | viability, T/C [54] 4.75% | viability, T/C [55] 5.13% | viability, T/C [30] 4.36% | viability, T/C [31] 5.51%
< 0.316 nM: IC50 [5]
1.14 nM: IC50 [1]
1.27 nM: IC50 [4]
inactive: viability, T/C [36] 118% | viability, T/C [37] 54.2% | viability, T/C [38] 16.5% | viability, T/C [39] 10.9% | viability, T/C [40] 106% | viability, T/C [41] 35.6% | viability, T/C [42] 15.3% | viability, T/C [44] 102% | viability, T/C [45] 48.5% | viability, T/C [46] 16.2% | viability, T/C [48] 99.7% | viability, T/C [49] 58.4% | viability, T/C [50] 18.1% | viability, T/C [52] 34.2% | viability, T/C [53] 11.4%
0.791 nM: IC50 [2]
